The text below walks through data of patent publication US20210038559A1, “CANNABINOIDS AND DERIVATIVES FOR PROMOTING IMMUNOGENICITY OF TUMOR AND INFECTED CELLS” (priority 2018, published 2021).

The structures appear in SMILES notation. Where a name gives a salt, the structure may show the parent alone.

The first test relates to MHC-I expression by COLO 205 cells. Nature of the test: cells. In kind it is cell-based, human. As to conditions: Homo sapiens, COLO 205, 48 h, MHC-I expression, COLO 205 cells, compounds at 35 μM, 48 hours, flow cytometry (W6/32); read-out: Induction Fold. The method, then:
A panel of synthetic cannabinoids (Cayman Chemical, #9002891) was tested for MHC class I-inducing capability in COLO 205 cells as described above. COLO 205 cells were treated with the compounds at a concentration of 35 μM and evaluated for cell surface MHC class I expression after 48 hours. Cells were harvested, stained with MHC-I mAb W6/32 (Thermo Fisher). MHC-I expression was determined by flow cytometry.
(In general: In flow cytometry, cells or beads pass a laser one at a time.)
On to `CCCCCn1cc(C(=O)N[C@H](C(=O)OC)C(C)C)c2ccccc21` [Example 328, N-[(1-pentyl-1H-indol-3-yl)carbonyl]-L-valine, methyl ester], for which the fold induction at 35 µM turned out to be 1.24.
Same read-out and setting: for `CCCCCn1cc(C(=O)Nc2cccc3ccccc23)c2ccccc21` [Example 329, N-1-naphthalenyl-1-pentyl-1H-indole-3-carboxamide] the value was 1.23; for `O=C(Nc1cccc2ccccc12)c1cn(Cc2ccc(F)cc2)c2ccccc12` [Example 330, 1-(4-fluorobenzyl)-N-(naphthalen-1-yl)-1H-indole-3-carboxamide], 1.23.
The same measure, in the same setting: for `CCCCCc1cc(O)cc(OCCCCCCCCCCC(=O)NC2CC2)c1` [Example 331, N-cyclopropyl-11-(3-hydroxy-5-pentylphenoxy)-undecanamide] the value was 1.22; for `O=C(Oc1ccc2ccccc2c1)c1nn(-c2ccccc2F)c2ccccc12` [Example 332, naphthalen-2-yl 1-(2-fluorophenyl)-1H-indazole-3-carboxylate], 1.21; for `C=CCCCn1cc(C(=O)c2ccc(C)c3ccccc23)c2ccccc21` [Example 334, (4-methylnaphthalen-1-yl)(1-(pent-4-en-1-yl)-1H-indol-3-yl)methanone], 1.2.
The same measure, in the same setting: for `CCC(F)CCn1nc(C(=O)NC(C(N)=O)C(C)C)c2ccccc21` (stereo not shown) [Example 335, N-(1-amino-3-methyl-1-oxobutan-2-yl)-1-(3-fluoropentyl)-1H-indazole-3-carboxamide] the value was 1.2.
With `CC(C)(C)n1cc(C(=O)c2cccc3ccccc23)c2ccccc21` [Example 336, (1-(tert-butyl)-1H-indol-3-yl)(naphthalen-1-yl)methanone], the fold induction at 35 µM was determined as 1.2.
Consider `O=C(Nc1ccc2ccccc2c1)c1cn(CCCCCF)c2ccccc12` [Example 337, 1-(5-fluoropentyl)-N-(naphthalen-2-yl)-1H-indole-3-carboxamide], for which the fold induction at 35 µM is 1.19.
Turning to `CCC(F)CCn1cc(C(=O)Nc2cccc3ccccc23)c2ccccc21` (stereo not shown) [Example 338, 1-(3-fluoropentyl)-N-(naphthalen-1-yl)-1H-indole-3-carboxamide], the fold induction at 35 µM was found to be 1.19.
The same measure, in the same setting: for `CC(F)CCCn1cc(C(=O)Nc2cccc3ccccc23)c2ccccc21` (stereo not shown) [Example 339, 1-(4-fluoropentyl)-N-(naphthalen-1-yl)-1H-indole-3-carboxamide] the value was 1.19; for `O=C(Oc1ccc2ccncc2c1)c1cn(CCCCCF)c2ccccc12` [Example 340, isoquinolin-7-yl 1-(5-fluoropentyl)-1H-indole-3-carboxylate], 1.18; for `O=C(c1cccc2ccccc12)c1cn(CCCCCCF)c2ccccc12` [Example 341, (1-(6-fluorohexyl)-1H-indol-3-yl)(naphthalen-1-yl)methanone], 1.18.
Turning to `CC(C)C(C)n1cc(C(=O)c2ccc3ccccc3c2)c2ccccc21` (stereo not shown) [Example 342, (1-(3-methylbutan-2-yl)-1H-indol-3-yl)(naphthalen-2-yl)methanone], the fold induction at 35 µM worked out at 1.17.
In the case of `CC(C)[C@H](NC(=O)c1c2ccccc2nn1CC1CCCCC1)C(N)=O` [Example 343, (S)-N-(1-amino-3-methyl-1-oxobutan-2-yl)-2-(cyclohexylmethyl)-2H-indazole-3-carboxamide], the fold induction at 35 µM was 1.14.
On the same count and under the same terms, for `CC(C)[C@H](NC(=O)c1cc(-c2ccc(F)cc2)n(CC2CCCCC2)n1)C(N)=O` [Example 344, (S)-N-(1-amino-3-methyl-1-oxobutan-2-yl)-1-(cyclohexylmethyl)-5-(4-fluorophenyl)-1H-pyrazole-3-carboxamide] the value was 1.14; for `CC(C)(O)CCn1c(=O)n(C(=O)N[C@H](C(N)=O)C(C)(C)C)c2ccccc21` [Example 345, N-[(1S)-1-(aminocarbonyl)-2,2-dimethylpropyl]-2,3-dihydro-3-(3-hydroxy-3-methylbutyl)-2-oxo-1H-benzimidazole-1-carboxamide], 1.13.
With `CCCCCn1cc(C(=O)c2cccc3c(OC)cccc23)c2ccccc21` [Example 346, (5-methoxynaphthalen-1-yl)(1-pentyl-1H-indol-3-yl)methanone], the fold induction at 35 µM stood at 1.13.
On the same count and under the same terms, for `COc1ccc(N2CCNCC2)cc1` [Example 347, 1-(4-Methoxyphenyl) piperazine (hydrochloride)] the value was 1.12; for `CNCC(C)Cc1ccc2c(c1)OCO2` (stereo not drawn) [Example 348, N,β-dimethyl-1,3-benzodioxole-5-propanamine, monohydrochloride], 1.11; for `CCCCCn1cc(C(=O)Nc2ccc3ccccc3c2)c2ccccc21` [Example 349, N-2-naphthalenyl-1-pentyl-1H-indole-3-carboxamide], 1.1.
As for `CCC(C)n1cc(C(=O)c2ccc3ccccc3c2)c2ccccc21` (stereo not shown) [Example 350, (1-(sec-butyl)-1H-indol-3-yl)(naphthalen-2-yl)-methanone], the fold induction at 35 µM turned out to be 1.08.
On the same count and under the same terms, for `CCCCCn1cc(C(=O)NC(C)(C)c2ccccc2)c2ccccc21` [Example 351, N-(1-methyl-1-phenylethyl)-1-pentyl-1H-indole-3-carboxamide] the value was 1.07; for `COC(=O)[C@@H](NC(=O)c1cn(CCCCCF)c2ccccc12)C(C)C` [Example 354, N-[[1-(5-fluoropentyl)-1H-indol-3-yl]carbonyl]-L-valine, methyl ester], 1.05.
Turning to `CC(C)(NC(=O)c1cn(CCCCCF)c2ccccc12)c1ccccc1` [Example 356, 1-(5-fluoropentyl)-N-(1-methyl-1-phenylethyl)-1H-indole-3-carboxamide], the fold induction at 35 µM stood at 1.03.
Same read-out and setting: for `O=C(NCC1CC1)c1cn(CCCCCF)c2ccccc12` [Example 357, N-(cyclopropylmethyl)-1-(5-fluoropentyl)-1H-indole-3-carboxamide] the value was 1.03; for `CCCC(F)Cn1cc(C(=O)c2ccc(C)c3ccccc23)c2ccccc21` (stereo not shown) [Example 359, (1-(2-fluoropentyl)-1H-indol-3-yl)(4-methylnaphthalen-1-yl)methanone], 1; for `CCCCCCC(C)(C)c1cc(O)c2c(c1)OC(C)(C)[C@H]1CC=C(CO)C[C@H]21` [Example 360, 3-(1,1-dimethylheptyl)-6aS,7,10,10aS-tetrahydro-1-hydroxy-6,6-dimethyl-6H-dibenzo[b,d]pyran-9-methanol], 0.96.
For the compound `CCCC(C)n1cc(C(=O)c2ccc3ccccc3c2)c2ccccc21` (stereo not shown) [Example 362, naphthalen-2-yl(1-(pentan-2-yl)-1H-indol-3-yl)methanone], the fold induction at 35 µM was 0.95.
As to `CCOc1ccc(Cc2nc3cc(C(=O)N(CC)CC)ccc3n2CC2CCCCC2)cc1` [Example 363, 1-(cyclohexylmethyl)-2-[(4-ethoxyphenyl)methyl]-N,N-diethyl-1H-benzimidazole-5-carboxamide], the fold induction at 35 µM was 0.92.
Same read-out and setting: for `CCCCCn1cc(C(=O)NC23CC4CC(CC(C4)C2)C3)c(=O)c2cc(C(C)C)ccc21` [Example 364, 1,4-dihydro-6-(1-methylethyl)-4-oxo-1-pentyl-N-tricyclo[3.3.1.1^3, 7]dec-1-yl-3-quinolinecarboxamide] the value was 0.89; for `CCCCCCC(C)(C)c1ccc([C@H]2C[C@@H](O)CC[C@@H]2CCCO)c(O)c1` [Example 365, 2-((1S,2S,5S)-5-hydroxy-2-(3-hydroxypropyl)cyclohexyl)-5-(2-methyloctan-2-yl)phenol], 0.89.
On the same count and under the same terms, for `CCCCCn1cc(-c2nc(CN(CCOC)C(C)C)cs2)c2ccccc21` [Example 369, N-(2-methoxyethyl)-N-(1-methylethyl)-2-(1-pentyl-1H-indol-3-yl)-4-thiazolemethanamine, monohydrochloride] the value was 0.85.
On the same count and under the same terms, for `CCCCn1cc(C(=O)c2ccc(OC)c3ccccc23)c2ccccc21` [Example 370, (1-butyl-1H-indol-3-yl)(4-methoxy-1-naphthalenyl)-methanone] the value was 0.82.

Still in this test, the particulars now being: Homo sapiens, COLO 205, 48 h, read-out: Induction Fold.
In the case of `CN1CCCCC1Cn1cc(C(=O)C2C(C)(C)C2(C)C)c2ccccc21` (stereo not shown) [Example 368, [1-[(1-methyl-2-piperidinyl)methyl]-1H-indol-3-yl](2,2,3,3-tetramethylcyclopropyl)-methanone], the fold induction at 35 µM stood at 0.85.

The same test, now with this note: MHC-I expression, COLO 205 cells, compounds at 35 μM, 48 hours, flow cytometry (W6/32).
In the case of `O=C(NC12CC3CC(CC(C3)C1)C2)c1nn(CCCCCCl)c2ccccc12` [Example 333, N-((3s,5s,7s)-adamantan-1-yl)-1-(5-chloropentyl)-1H-indazole-3-carboxamide], the “Induction Fold” value is recorded as 1.21 Fold.
Same read-out and setting: for `CC[C@H](C)[C@H](NC(=O)c1c2ccccc2nn1CCCCCF)C(N)=O` [Example 355, N-(1-amino-3S-methyl-1-oxopentan-2S-yl)-2-(5-fluoropentyl)-2H-indazole-3-carboxamide] the value was 1.05 Fold; for `O=C(OC12CC3CC(CC(C3)C1)C2)c1nn(CCCCCF)c2ccccc12` [Example 358, (3s,5s,7s)-adamantan-1-yl 1-(5-fluoropentyl)-1H-indazole-3-carboxylate], 1.02 Fold; for `CCCCCn1cc(-c2nc(CN(CC)CC)cs2)c2ccccc21` [Example 366], 0.89 Fold.
The same measure, in the same setting: for `CC1=CC[C@@H]2[C@@H](C1)c1c(O)cc(C(C)(C)c3ccccc3)cc1OC2(C)C` [Example 367, 6aR,7,10,10aR-tetrahydro-6,6,9-trimethyl-3-(1-methyl-1-phenylethyl)-6H-dibenzo[b,d]pyran-1-ol] the value was 0.87 Fold.
